Measurements as given in US7655431B2, “Compositions and methods based upon the kinase haspin” (The Brigham and Women's Hospital, Inc., priority 2004, dated 2010).
Values joined by “and” are separate entries in the source; they are usually repeats but may differ in a detail not shown here. Equal entries are not always repeated.

Assays:
[1] = biological target: T1, 6His-haspin kinase (Homo sapiens, UniProt Q8TF76); experiment: ELISA-based microtiter plate haspin kinase assay; type: biochemical; settings: 100 μM ATP, 10 mM MnCl2, 20 min 37° C.
T1 construct: insertion of a PCR product encoding residues 471-798 of human haspin into the PshA I site of the vector pET45b(+); 6His (N); made in house; host or cells: E. coli BL21
T1 sequence (Q8TF76 471-798): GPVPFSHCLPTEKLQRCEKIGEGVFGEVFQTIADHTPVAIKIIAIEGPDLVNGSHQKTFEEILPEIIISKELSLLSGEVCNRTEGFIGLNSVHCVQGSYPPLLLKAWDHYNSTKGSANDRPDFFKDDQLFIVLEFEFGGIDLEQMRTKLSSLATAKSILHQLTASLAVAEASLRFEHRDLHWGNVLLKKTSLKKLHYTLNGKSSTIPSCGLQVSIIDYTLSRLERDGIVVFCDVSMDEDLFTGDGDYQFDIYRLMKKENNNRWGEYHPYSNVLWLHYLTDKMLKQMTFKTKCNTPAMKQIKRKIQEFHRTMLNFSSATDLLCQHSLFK
Description: In these assays, H3-GST substrate protein (or H3-T3A-GST non-phosphorylable control) was immobilized on 96-well microtiter plates by incubation in PBS overnight at 4° C. Following washing and blocking with 1% BSA/TBS, 6His-haspin kinase was added to the wells in 50 μl total volume of Hepes-buffered saline (HBS)/100 μM ATP/10 mM MnCl2 and allowed to phosphorylate the immobilized substrate for 20 min at 37° C. After washing thrice with TBS/0.1% Tween-20, affinity-purified polyclonal anti-phospho-histone H3 (Thr-3) antibodies were added for 1 h at room temperature. After washing, antibody binding (i.e. phosphorylation) was detected using 1/2000 dilution of donkey anti-rabbit IgG-Horse Radish […] (HRP) conjugate (Jackson) followed by tetramethylbenzidine (TMB) color development (BD Biosciences). Measurement of A450 nm-A570 nm (to correct for well-to-well variation in background absorbance) was carried out after addition of H2SO4.

[2] = tested on: HeLa Tet-On cells transfected with vector alone; experiment: proliferation and cell cycle of vector-transfected HeLa Tet-On cells with doxycycline; type: cell-based, human
Description: Using customized double stranded adapters, full length human haspin cDNA (amino acids 1-798, Higgins, Gene 267:55-69 (2001)) was ligated into the Hind III-Xba I sites of the expression vector pcDNA3 (Invitrogen) and, to generate myc-tagged haspin, cDNA encoding residues 2-798 was inserted into the pcDNA3-derived plasmid pCANmyc1. To generate a plasmid encoding EGFP-haspin, haspin cDNA encoding amino acids 2-798 is inserted into the Sac II-BamH I sites of pEGFP-C1 (Clontech). To generate inducible vectors, cDNA encoding myc-haspin from pCANmyc-haspin (Hind III-EcoR V) is blunt-ended and inserted into the Pvu II site of pTRE2/pur (BD Clontech) and Nhe I-Xba I fragments encoding EGFP-haspin or EGFP alone from pEGFP-haspin or pEGFP-C1, respectively are ligated into the Nhe I site of pTRE2pur. All constructs are verified by DNA sequencing. Transient transfection is carried out using Lipofectamine 2000 (Invitrogen). Stable transfection of HeLa Tet-On (BD Clontech) cells is carried out using Lipofectin with Plus Reagent (Invitrogen). After 24 h, cells are transferred to 96-well plates and incubated in medium containing 1 μg/ml puromycin and 100 μg/ml G418. Clones expressing myc-haspin or EGFP-haspin in the presence, but not absence, of 1 μg/ml doxycycline are selected by anti-myc immunoblotting or flow cytometric analysis of EGFP fluorescence respectively. […]

| Molecule | haspin kinase activity (phosphorylation of immobilized H3-GST) [1] | cell number relative to uninduced control ([2]; after 8 days, two experiments, vector alone) | cell cycle progression ([2]; vector-transfected cells) |
| --- | --- | --- | --- |
| O=C(O)CN(CCN(CC(=O)O)CC(=O)O)CC(=O)O [EDTA] | inhibition |  |  |
| C[C@H]1c2cccc(O)c2C(=O)C2=C(O)[C@]3(O)C(=O)C(C(N)=O)=C(O)[C@@H](N(C)C)[C@@H]3[C@@H](O)[C@@H]21 [Doxycycline, doxycycline] |  | 104% and 115% | no effect |
| ARTKQTAR [H3(1-8)] | inhibition |  |  |
